This series can be described thus: Solubility in water. Format: physicochemical. From the text:
In order to solubilize it in water, the present inventors have conjugated it with amphiphilic polyethylene glycol (PEG) having an average molecular weight of 100-20,000 (preferably about 5,000) (patent document 2) to create a water-soluble derivative thereof.

These results are taken from patent US8128959B2, “Polymeric pharmaceutical agent for treatment of cancer and method for production of the same” (Hiroshi Maeda, priority 2005, dated 2012).

Take `C=CC1=C(C)c2cc3[n-]c(cc4nc(cc5[n-]c(cc1n2)c(C)c5C=C)C(C)=C4CCC(=O)O)c(CCC(=O)O)c3C.[Zn+2]` [ZnPP, zinc-protoporphyrin]: the solubility in water entry was “insoluble in water”.
